From ChEMBL document CHEMBL1144202, “Triazole oxytocin antagonists: identification of aryl ether replacements for a biaryl substituent” (Bioorg Med Chem Lett, 2008)
≈ marks a conversion by molar mass, not a printed value.

How the values were obtained:
[1] = biological target: T1, Oxytocin receptor (Homo sapiens, UniProt P30559); test: Antagonist activity at human oxytocin receptor by cell based beta-lactamase reporter gene assay; type: functional
T1 sequence (P30559 whole entry): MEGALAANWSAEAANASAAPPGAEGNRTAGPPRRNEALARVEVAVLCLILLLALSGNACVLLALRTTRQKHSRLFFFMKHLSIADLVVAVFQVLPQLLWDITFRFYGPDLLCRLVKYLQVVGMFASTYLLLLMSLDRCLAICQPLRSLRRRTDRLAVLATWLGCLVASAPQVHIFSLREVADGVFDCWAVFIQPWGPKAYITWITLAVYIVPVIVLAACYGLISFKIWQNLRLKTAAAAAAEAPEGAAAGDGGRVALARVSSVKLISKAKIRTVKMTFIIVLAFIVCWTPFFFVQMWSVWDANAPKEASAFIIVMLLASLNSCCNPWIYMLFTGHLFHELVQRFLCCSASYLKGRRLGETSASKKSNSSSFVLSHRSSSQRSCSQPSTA

[2] = biological target: T2, Vasopressin V1b receptor (Homo sapiens) (UniProt P47901); test: Binding affinity to human vasopressin V1b receptor at 10 uM relative to control
T2 sequence (whole entry): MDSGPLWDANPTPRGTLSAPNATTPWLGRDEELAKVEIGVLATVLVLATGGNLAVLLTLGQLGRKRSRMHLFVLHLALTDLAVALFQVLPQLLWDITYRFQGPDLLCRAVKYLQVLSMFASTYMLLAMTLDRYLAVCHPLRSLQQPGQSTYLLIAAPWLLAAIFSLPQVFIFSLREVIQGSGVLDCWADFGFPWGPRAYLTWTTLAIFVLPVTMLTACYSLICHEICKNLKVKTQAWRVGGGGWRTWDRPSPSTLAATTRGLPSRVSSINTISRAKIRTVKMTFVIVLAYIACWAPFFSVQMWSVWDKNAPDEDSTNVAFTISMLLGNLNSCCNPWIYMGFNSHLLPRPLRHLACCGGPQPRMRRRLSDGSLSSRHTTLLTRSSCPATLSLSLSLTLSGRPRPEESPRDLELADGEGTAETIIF

[3] = biological target: Vasopressin V2 receptor (Homo sapiens, UniProt P30518); test: Antagonist activity at human vasopressin V2 receptor by cell based beta-lactamase reporter gene assay; type: functional
Sequence of Vasopressin V2 receptor (P30518 whole entry): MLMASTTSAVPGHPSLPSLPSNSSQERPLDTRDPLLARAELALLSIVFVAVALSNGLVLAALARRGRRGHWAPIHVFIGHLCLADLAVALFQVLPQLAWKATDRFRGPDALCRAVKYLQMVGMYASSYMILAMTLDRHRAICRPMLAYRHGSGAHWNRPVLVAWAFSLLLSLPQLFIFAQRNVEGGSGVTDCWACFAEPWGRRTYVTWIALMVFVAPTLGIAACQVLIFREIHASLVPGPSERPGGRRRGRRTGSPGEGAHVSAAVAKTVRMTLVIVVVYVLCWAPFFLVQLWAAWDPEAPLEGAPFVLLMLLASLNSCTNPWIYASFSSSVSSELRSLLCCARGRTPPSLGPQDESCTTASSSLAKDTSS

[4] = biological target: Vasopressin V1a receptor (Homo sapiens, UniProt P37288); test: Antagonist activity at human vasopressin V1a receptor by cell based beta-lactamase reporter gene assay; type: functional
Sequence of Vasopressin V1a receptor (P37288 whole entry): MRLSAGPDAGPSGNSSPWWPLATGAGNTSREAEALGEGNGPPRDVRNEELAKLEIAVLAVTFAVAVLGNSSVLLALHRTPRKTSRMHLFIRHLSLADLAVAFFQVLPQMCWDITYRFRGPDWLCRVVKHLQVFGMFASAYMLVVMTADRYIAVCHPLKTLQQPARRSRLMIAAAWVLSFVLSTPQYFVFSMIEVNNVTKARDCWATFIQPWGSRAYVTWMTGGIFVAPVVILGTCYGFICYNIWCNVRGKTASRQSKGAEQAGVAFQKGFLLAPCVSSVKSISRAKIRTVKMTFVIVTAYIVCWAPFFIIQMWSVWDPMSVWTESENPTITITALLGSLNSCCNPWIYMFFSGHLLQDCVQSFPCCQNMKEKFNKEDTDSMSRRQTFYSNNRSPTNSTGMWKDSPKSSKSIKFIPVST

[5] = Aqueous solubility at pH 7.4; type: physicochemical
[6] = Intrinsic clearance in human liver microsomes; type: ADME, Microsome
[7] = biological target: T3, Vasopressin V1b receptor (Homo sapiens, UniProt P47901); test: Antagonist activity at human vasopressin V1b receptor by cell based beta-lactamase reporter gene assay; type: functional
T3 sequence (P47901 whole entry): T2 sequence (whole entry)

Ki [1]	Activity [2]	Ki [3]	Ki [4]	solubility [5]	microsomal CLint [6]	Ki [7]	Compound
190 nM	< 20%	> 10000 nM	> 10000 nM	–	–	–	CCOc1ccc(-c2nnc(COC)n2-c2ccc(OC)nc2)cc1C(F)(F)F
143 nM	< 20%	> 10000 nM	> 10000 nM	–	–	–	CCOc1ccc(-c2nnc(C)n2-c2ccc(OC)nc2)cc1C
–	< 20%	–	–	–	–	–	COCc1nnc(-c2cnc(-c3ccc(C#N)cc3C)cn2)n1-c1ccc(OC)nc1
19 nM	< 20%	6400 nM	1700 nM	–	–	–	CCOc1ccc(-c2nnc(COCCOC)n2-c2ccc(OC)nc2)cc1C
102 nM	< 20%	> 10000 nM	3800 nM	170 µg/mL (≈ 480 µM)	–	–	CCOc1ccc(-c2nnc(COC)n2-c2ccc(OC)nc2)cc1C
45 nM	< 20%	1000 nM	214 nM	–	–	–	CCOc1ccc(-c2nnc(Cn3nccn3)n2-c2ccc(OC)nc2)cc1C
6 nM	< 20%	–	–	–	–	–	CCOc1ccc(S(=O)(=O)N(CC(=O)N/N=C2\C(=O)Nc3ccccc32)c2ccccc2)cc1
144 nM	< 20%	> 10000 nM	2900 nM	–	–	–	CCOc1ccc(-c2nnc(COC)n2-c2ccc(OC)nc2)cc1Cl
–	< 20%	–	–	–	–	–	COc1ccc(-n2c(C)nnc2-c2cnc(-c3ccc(F)cc3C)cn2)cn1
28 nM	< 20%	> 10000 nM	594 nM	344 µg/mL (≈ 934 µM)	12 µL/min/mg	> 10000 nM	CCOCc1nnc(-c2ccc(OCC)c(C)c2)n1-c1ccc(OC)nc1
